Test system: BaF3-NPM-ALK cells
Assay: Cytotoxicity experiment, ALK WT cells
Assay type: cell-based, murine
Settings: two days incubation
Procedure: The cell line that can be used in the assay is Ba/F3, a murine pro-B cell line that has been stably transfected with the expression vector pClneo™ (Promega Corp., Madison Wis.) encoding NPM-ALK and subsequently G418-resistent cells were selected. The inhibitory activity of the compounds of Formula I can be determined as follows: BaF3-NPM-ALK cells (15000/well in a microtiter plate) were transferred to a 96-well microtiter plate. Test compounds (dissolved in DMSO) were then added in a series of concentrations (serial dilutions) with a final concentration of DMSO not exceeding 1% (v/v). […] The cell lysis was completed at room temperature within 60 minutes and the amount of Yopro bound to the DNA was determined by measurement using, for example, a CytoFluor II 96-well reader (PerSeptive Biosystems). IC50 can be determined by computer aided system using the following formula: IC50=[(ABS test−ABS start)/(ABS control−ABS start)]×100 wherein ABS was absorption.

| Compound | IC50 |
| --- | --- |
| CC1Oc2cc(cnc2N)-c2c(nn(C)c2C#N)CN(C)C(=O)c2ccc(F)cc21 (racemic) [Compound 28] | < 1 nM |
| CC1Oc2cc(cnc2N)-c2c(nn(C)c2C#N)CN(C)C(=O)c2ccc(F)cc21 (racemic) [Compound 45] | < 1 nM |
| CC1Oc2cc(cnc2N)-c2c(nn(C)c2C#N)CN(C)C(=O)c2ccc(F)cc21 (racemic) [Compound 58] | < 1 nM |
| CC1Oc2cc(cnc2N)-c2c(nn(C)c2C#N)CN(C)C(=O)c2ccc(F)cc21 (racemic) [Compound 72] | < 1 nM |
| CC1Oc2cc(cnc2N)-c2c(nn(C)c2C#N)CN(C)C(=O)c2ccc(F)cc21 (racemic) [Compound 76] | < 1 nM |
| CC1Oc2cc(cnc2N)-c2c(nn(C)c2C#N)CN(C)C(=O)c2ccc(F)cc21 (single isomer, unassigned) [Compound 18] | < 1 nM |
| C[C@H]1Oc2cc(cnc2N)-c2c(nn(C)c2C#N)CN(C)C(=O)c2ccc(F)cc21 [PF-06463922, reference compound] | < 1 nM |

From patent US10780082B2, “Macrocycle and composition comprising thereof” (Shenzhen TargetRx, Inc., priority 2016, dated 2020)
